We go through 3 compounds from US20250145619A1, “KHK INHIBITOR, PREPARATION METHOD THEREFOR AND USE THEREOF” (YOUNGENE THERAPEUTICS CO., LTD, priority 2022, published 2025).

The target in this test is KHK—C (Homo sapiens (Human), UniProt P50053). Briefly: KHK—C ADP-Glo kinase inhibitory activity assay. Type of test: biochemical. The conditions noted are these: 1 nM KHK—C, 200 μM D-Fructose, 100 μM ATP, ADP-Glo luminescence. The text has this:
(KHK—C ADP-Glo Kinase Inhibitory Activity Assay)
Y=Bottom+(Top−Bottom)/(1+10^((LogIC50−X)×HillSlope)) • X: Log value of compound concentration • Y: Inhibition ratio (%)
[formula] • Negative control: DMSO

Sequence of KHK—C (P50053 whole entry): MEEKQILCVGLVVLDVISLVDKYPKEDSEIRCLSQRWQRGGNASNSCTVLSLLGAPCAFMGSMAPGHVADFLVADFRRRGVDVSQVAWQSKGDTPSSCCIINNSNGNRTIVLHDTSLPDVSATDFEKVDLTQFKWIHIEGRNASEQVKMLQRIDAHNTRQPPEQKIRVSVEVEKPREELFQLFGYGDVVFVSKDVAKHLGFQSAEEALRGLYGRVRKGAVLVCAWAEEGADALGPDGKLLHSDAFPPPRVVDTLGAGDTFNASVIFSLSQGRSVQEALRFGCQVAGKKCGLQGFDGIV

As a reminder, the IC50 is the concentration needed to halve the response being measured. Lower therefore signals inhibition by little substance. With `C[C@H]1CCN1c1nc(N2CC[C@H](CC(=O)O)C2)c2c(n1)C(F)(F)CC2` [Example 36, 2-((R)-1-(7,7-difluoro-2-((S)-2-methylazetidine-1-yl)-6,7-dihydro-5H-cyclopentadiene[d]pyrimidin-4-yl)pyrrolidin-3-yl)acetic acid], the IC50 is 13.6 nM. That is a double-digit nanomolar value. To `C[C@H]1CCN1c1nc(N2CC[C@H](CC(=O)O)C2)cc2nccnc12` [Example 41, 2-((R)-1-(5-((S)-2-methylazetidine-1-yl)pyridino[3,4-b]pyrazin-7-yl)pyrrolidin-3-yl)acetic acid] belongs 3940 nM; to `C[C@H]1CCN1c1nc(N2C[C@@H]3[C@@H](CC(=O)O)[C@@H]3C2)cc2nc(C#N)cnc12` [Example 46, 2-((1R,5S,6R)-3-(2-cyano-5-((S)-2-methylazetidine-1-yl)pyridino[3,4-b]pyrazin-7-yl)-3-azabicyclo[3.1.0]hexan-6-yl)acetic acid], 30.2 nM.
